Data taken from patent US5015661A, “Chromanes and their pharmaceutical compositions and methods” (Hoffmann-La Roche Inc., priority 1989, dated 1991).

What was measured:
[1] = target: T1, Δ^5 -lipoxygenase from rat basophilic leukemia (RBL-1) cells (Rattus norvegicus, UniProt P12527); test: In vitro test for Δ^5 -lipoxygenase inhibitors (5-LO), RBL-1 cell enzyme, 5-HETE radioimmunoassay; type: biochemical; details: RBL-1 5-LO; 10 min preincubation; 8.25 μM arachidonic acid, 10 min at 37° C.; 5-HETE formation; read-out: 5-LO IC-50
T1 construct: endogenous in cells; host or cells: RBL-1 rat basophilic leukemia cells (ATCC CRL 1378); 113,000×g supernatant (cytosolic fraction)
T1 sequence (P12527 1-673): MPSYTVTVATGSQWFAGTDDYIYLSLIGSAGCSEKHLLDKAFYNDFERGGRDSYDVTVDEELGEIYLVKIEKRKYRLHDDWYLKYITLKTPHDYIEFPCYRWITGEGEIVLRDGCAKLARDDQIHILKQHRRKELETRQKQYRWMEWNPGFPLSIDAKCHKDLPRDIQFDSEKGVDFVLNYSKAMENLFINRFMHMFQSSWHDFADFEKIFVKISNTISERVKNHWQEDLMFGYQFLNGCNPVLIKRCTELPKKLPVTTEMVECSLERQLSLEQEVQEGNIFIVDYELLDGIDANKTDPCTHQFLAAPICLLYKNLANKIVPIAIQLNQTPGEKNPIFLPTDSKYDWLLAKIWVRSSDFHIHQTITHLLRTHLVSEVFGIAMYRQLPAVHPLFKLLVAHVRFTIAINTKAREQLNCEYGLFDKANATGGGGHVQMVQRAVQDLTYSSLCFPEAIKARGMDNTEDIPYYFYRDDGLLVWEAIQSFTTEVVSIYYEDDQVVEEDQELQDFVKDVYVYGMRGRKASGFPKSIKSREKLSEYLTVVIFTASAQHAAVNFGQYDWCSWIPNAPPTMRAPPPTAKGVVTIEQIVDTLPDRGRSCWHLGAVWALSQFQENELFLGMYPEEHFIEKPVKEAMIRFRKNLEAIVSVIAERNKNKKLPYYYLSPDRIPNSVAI
Experimental: IN VITRO TEST FOR Δ^5 -LIPOXYGENASE INHIBITORS Compounds of formula I of the invention were tested for their effect on Δ^5 -lipoxygenase from rat basophilic leukemia (RBL-1) cells. Materials. RBL-1 cells (CRL 1378) were obtained from the American TYpe Culture Collection, Rockville, MD. DMEM and glutamine were purchased from Flow Labs, McLean, VA. FBS (Gibco, Grand Island, NY) was heat-inactivated for 1 hour at 56° C. Reagents for protein determinations were obtained from Biorad, Rockville Center, NY. Arachidonic acid (approx. 99%), ATP (disodium slat), BHT, dextran (clinical grade), tetrasodium EDTA, gelatin, gentamycin sulfate solution, reduced glutathione, 1 M HEPES buffer, indomethacin, NaCl, reduced NADpH, Trizma 7.2, and Trizma 8.5 were purchased from Sigma Chemical, St. Louis, MO. CaCl2 dihydrate, Norit A charcoal, and citric acid monohydrate were obtained from Fisher Scientific, Pittsburgh, PA. […] MA. A synthetic 5-HETE standard was supplied by Dr. M. Rosenberger, Dept. of Medicinal Chemistry, Hoffmann-La Roche, Nutley, NJ; [see Corey, E.J., and Hashimoto, S. (1981 ) Tet. Letters, 22, 299-302 for method of preparation]. Ecoscint liquid sointillation fluid was purchased from National Diagnostics, Sommerville, NJ. Isolation of 5-lipoxygenase. […] Approximately 7-9 days after thawing, RBL-1 cells growing in log phase were seeded at a density of 7500 viable cells/ml in a closed 89-liter spinner flask. The cells were stirred constantly for 3-4 days at 37° C. until they reached a density greater than 500,000/ml but less than 800,00/ml. RBL-1 cells were harvested by centrifugation at 4° C. at 1500×g for 10 minutes and were washed 3 times with ice cold 0.05 M tris-HCl, pH 7.2, tetrasodium EDTA (buffer 1). The cells were washed last in 0.05 M Tris-HCl containing 14 μM indomethacin, 1 mM glutathione, 1.5 mM NaCl, and 1 mM tetrasodium EDTA (buffer 2), resuspended at a density of 5×108'/ml (approximately 10 ml) and disrupted manually at 4° C. using a 40 ml Dounce (type A pestle) homogenizer. After 5 minutes of homogenization. 95% cell lysis was confirmed by phase contrast microscopy. The broken cells were diluted 1:2 with buffer 2 and centrifuged at 12,380×g for 10 minutes at 4° C. to pellet cellular debris and granules. The 12,380×g supernatant was centrifuged at 113,000×g for 60 minutes to pellet microsomes. The high-speed supernatant (5.9±0.48 mg/ml protein) was frozen immediately in 1 ml aliquots using a dry ice/acetone bath. The isolated cytosolic fraction was stored in liquid N2 for up to 8 weeks without loss of 5-LO enzyme activity. Lipoxygenase Assay. Compounds Were dissolved at 25 mM concentration in DMSO, then diluted to final concentrations using 95% ethanol. For a typical enzyme assay, the partially purified 5-LO preparation was preincubated with drug or vehicle for 10 minutes at 30° C. The assay tubes were then transferred at a 37° C. water bath where they received arachidonic acid (8.25 μM final concentration) to initiate 5-LO activity. In addition to enzyme and substrate, each reaction tube contained: 12.5 μmoles of Tris-HCl (pH 7.2), 25 nmoles glutathione, 0.35 nmoles indomethacin and 1.25 μmoles of CaCl2 and ATP to yield a total of volume of 250 μl. The enzyme reaction was terminated after 10 minutes by the addition of 75μl […] citric acid to yield pH 3.5. The samples were immediately cooled on ice and neutralized by dilution with 0.05 M Tris-HCl, pH 8.5, which contained 25 mg/1 BHT. A boiled cytosol control was placed at the end of each assay to measure non-enzymatic oxidation of arachidonic acid. The mean specific activity of the 5-LO enzyme preparation was approximately 66.16±14.39 pmol 5-HETE/min/mg protein. Radioimmunoassay for 5-HETE. Under the assay conditions described, the 5-LO catalyzed the conversion of arachidonic acid to 5-HPETE which, as a consequence o peroxidase activity, was reduced to 5-HETE. A specific radioimmunoassay was employed to quantitate the amount (pmoles) of 5-HETE formed during the enzyme reaction. […]

[2] = tested on: arachidonic acid-induced mouse ear edema; test: Mouse ear edema test (in vivo), arachidonic acid-induced; details: 1 mg topical, CD-1 male mice, 0.5 mg arachidonic acid 0.5 or 4 hours later, ear biopsy weight after 1 hour, read-out: EAR EDEMA % INHIB. 1 mg
Experimental: MOUSE EAR EDEMA TEST (IN VIVO)
In this animal model system, the application of arachidonic acid to the ear results in the biosynthesis of the metabolic products […]-6,8,11,14-eicosatetraenoic acid (5-HETE), leukotriene B4 (LTB4), leukotriene C4 (LTC4), […]-5,8,10,14-eicosatetraenoic acid (12-HETE), and prostaglandin E2 (PGE2) at the site of application, followed by the influx of neutrophils into the site and the rapid development of edema within 30 to 60 minutes (See, for instance, Young, Wagner and Spries, "Tachyphylaxis in 12-O-Tetradecanoylphorbol Acetate And Arachidonic Acid-Induced Ear Edma," J. Invest. Dermatol. 80:48 (1983) and Hames, Opas and Bonney, "Arachidonic Acid MetaboIites in Mouse Ear Edma" Advances in Inflammation Research. 11:57 (1986).
CD-1 male mice weighing 15 to 25 g were employed, and they were designated as follows: (1) Control Group, in which no arachidonic acid or test compound was to be applied, (2) Arachidonic Acid-Treated Group, in which no test compound was to be applied, and (3) Treated Group, in which the test compound was to be applied first, followed by the application of arachidonic acid.
In the case of the Group (3) animals, the test compound, dissolved in acetone, was applied to the dorsal surface of the right ear of the mouse with a 25-microliter pipette or, with the dose of the test compound being varied. After 0.5 hours in some cases and 4 hours in others, the arachidonic acid was topically applied in the same manner as above to the pretreated ear areas. In each case of arachidonic acid application, an amount of 0.5 mg dissolved in 25 microliters of acetone was used. After 1 hour, the mice were sacrificed by carbon dioxide inhalation. A 6mm-diameter standard biopsy punch was used to obtain a uniform tissue sample from the ear of each mouse so treated, and the tissue samples were weighted to the nearest 0.1 mg. The percent inhibition of ear edema formation was calculated as follows: [formula]

| IC50 [1] | Structure (SMILES) | inhibition in vivo at 1 mg [2] |
| --- | --- | --- |
| 1 nM | COc1cc(C=O)cc2cc(C3(C)CCc4c(C)c(O)c(C)c(C)c4O3)oc12 (racemic) [Example 54, rac-2-(3,4-Dihydro-6-hydroxy-2,5,7,8-tetramethyl-2H-1-benzopyran-2-yl)-7-methoxy-5-benzofurancarboxaldehyde] | 40% |
| 110 nM | Cc1c(C)c2c(c(C)c1O)CCC(C)(CCc1ccccc1)O2 (stereo not shown) [Example 56, 3,4-Dihydro-2,5,7,8-tetramethyl-2-(2-phenylethyl)-2H-1-benzopyran-6-ol] | 64% |
